Marks after values point to notes of the source that are not given here.
How the values were obtained:
[1] = Dose potency projection: rat ivGTT exposure response Emax model; format: in vivo; conditions: single SC dose, ivGTT 16 hours post-dosage
Experimental: The intravenous glucose tolerance test (ivGTT) in the rat is used to estimate relative potency of compounds of the present invention in comparison to semaglutide. […] Exposure is measured at the time of the ivGTT, and for exposure response modeling, the insulin AUC in response to the ivGTT is used as the primary endpoint. […] Both data sets are fit simultaneously and E0 and Emax values are constrained to be the same for both compounds. Only ED50 values are fit separately for the compounds.

[2] = Rat in vivo insulin secretion following intravenous glucose (IVGTT); conditions: s.c. 16 hour prior to glucose
Procedure, shortened: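 Male Wistar rats dosed s.c. with vehicle or 0.1–10 nmol/kg 16 h before glucose, then fasted and anesthetized with pentobarbital i.p. (65 mg/kg). Glucose ([…]) given after a time-zero bleed; plasma sampled at 2, 4, 6, 10, 20, 30 min. Glucose measured by analyzer, insulin by MSD immunoassay.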

[3] = Weight loss, body composition and hepatic steatosis in DIO mice; format: in vivo, mouse; conditions: for Blood Glucose: Day 15
Procedure, shortened: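 C57/BL6 DIO mice, individually housed at 24 °C, 12 h light/dark, food and water ad libitum; daily body weight and food intake, weight change versus pre-dose value of the same animal. Day 15: tail-vein glucose, then liver triglycerides and plasma cholesterol; ANOVA with Dunnett's test, ED50 for weight loss by non-linear fit.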

[4] = Energy metabolism in DIO mice (indirect calorimetry); format: in vivo, mouse; conditions: SC every three days for 22 days, from week 2, semaglutide 30 nmol/kg
Experimental: The effects on energy metabolism in DIO mice for compounds of the present invention are evaluated in 26 week old C57/B16 DIO male mice, weighing 43-50 g. Mice are individually housed in a temperature-controlled (24° C.) facility with a 12 hour light/dark cycle (lights on 22:00), and with free access to food TD95217 (Teklad) and water. After 2 weeks acclimation to the facility, mice are randomized to treatment groups (n=6/group) based on body weight so each group has similar starting mean body weight. Animals are placed in a PhenoMaster/LabMaster calorimeter (TSE Systems, Chesterfield, Mo.) for 3 days of acclimation. Vehicle control (20 mM citrate buffer at pH 7.0, 10 ml/kg), compounds of the present invention, or a long-acting GLP1 analogue, semaglutide, (30 nmol/kg) are subcutaneously administered to ad libitum fed DIO mice 30-90 minutes prior to the onset of the dark cycle every three days for 22 days. Heat and respiratory quotient (RER) are measured by indirect calorimetry as described using an open-circuit calorimetry system. RER is the ratio of the volume of CO2 produced (Vco2) to the volume of O2 consumed (Vo2). Heat is calculated with full body weight considered: VO2=FlowML*(V1+V2)/N2Ref*Animal weight*100) VCO2=FlowML*dCO2/Animal weight*100) Heat=(CVO2*VO2+CVCO2*VCO2)/1000; where CVO2=3.941; CVCO2=1.106

[5] = Gastric emptying in DIO mice; format: in vivo, mouse; conditions: 30 nmol/kg SC, semi-liquid diet, 2 hours
Experimental: The effects on gastric emptying in DIO mice for compounds of the present invention are evaluated in 23 week old diet-induced obese (DIO) male mice (Harlan). The mice are fasted for 16-17 hours. During the start of fasting period the mice are dosed subcutaneously with vehicle control (20 mM citrate buffer at pH 7.0); escalating doses of compounds of the present invention (3, 10, 30 and 100 nmol/kg), or a long-acting GLP1 analogue, semaglutide, (30 nmol/kg). The next day, mice are administered 0.5 ml (0.5 gram) of freshly prepared semi-liquid diet (2 minutes apart) by oral gavage. Water is removed at this time to prevent dilution of administered diet. Two hours after diet administration, mice are euthanized two minutes apart by CO2 gas. The stomach is removed while clamped at both cardiac and pyloric openings, then clamps removed and the full stomach weighed in a weigh boat. The stomach is then incised and contents removed. The stomach is washed and dried and re-weighed to assess food contents in stomach. The % gastric emptying equals 100×(1−(food remaining in stomach/food orally administered)).

[6] = Plasma corticosterone in Sprague Dawley rats; format: in vivo, rat
Experimental: Plasma corticosterone levels are evaluated using Sprague Dawley Rats (Harlan, Indianapolis), weighing approximately 220 g and acclimated for at least 72 hours before handling. The rats are then dosed with vehicle (20 mM citrate buffer, pH 7), semaglutide (10 nmol/kg), or compounds of the present invention at 3, 10 or 30 nmol/kg s.c. with 8 rats per dose group. The rats are decapitated 16 hours later. Blood is collected into EDTA tubes on ice, then centrifuged 5 minutes at 8000 RPM in a Eppendorf 5402 tabletop centrifuge. Plasma is stored at −80° C. until analysis.
For corticosterone analysis, corticosterone standards (Sigma, 27840) are prepared by serial dilutions in HPLC-grade methanol, H2O and the addition of 5% charcoal stripped rat serum (Bioreclamation, RATSRM-STRPD-HEV). Rat plasma samples are diluted with PBS, precipitated with cold methanol, incubated for 20 minutes at −20° C., and then centrifuged at 14,000 RPM with an Eppendorf 5417R at 4° C. Supernatants are extracted, evaporated under a stream of N2 gas, and reconstituted in MeOH/H2O (1:1) solution.

semaglutide [reference compound]
ED50 (Emax model, insulin AUC in ivGTT) [1]: 0.6 ± 0.2 nmol/kg | % max increase of insulin AUC [2]: 231 +/− 13% | ED50 for insulin, rat IVGTT [2]: 0.70 nmol/kg | % Change from starting body weight ([3]; Table 8, 10 nmol/kg): −12.36 ± 1.00 % | % Change from starting fat mass ([3]; Table 8, 10 nmol/kg): −18.21 ± 2.24 % | % Change from starting body weight ([3]; Table 8, 30 nmol/kg): −14.20 ± 1.01 % | % Change from starting fat mass ([3]; Table 8, 30 nmol/kg): −21.90 ± 2.07 % | % Change from starting body weight ([3]; Table 8, 100 nmol/kg): −19.30 ± 1.38 % | % Change from starting fat mass ([3]; Table 8, 100 nmol/kg): −33.51 ± 3.30 % | % Change from starting body weight ([3]; Table 9, 30 nmol/kg): −17.03 ± 0.98 % | % Change from starting fat mass ([3]; Table 9, 30 nmol/kg): −35.94 ± 4.09 % | Plasma Cholesterol ([3]; Table 11, 10 nmol/kg): 226.8 ± 13.86 mg/dL | Plasma Triglycerides ([3]; Table 11, 10 nmol/kg): 27.36 ± 3.56 mg/dL | Blood Glucose ([3]; Table 11, 10 nmol/kg): 147.6 ± 6.13 mg/dL | Plasma Cholesterol ([3]; Table 11, 30 nmol/kg): 229.8 ± 10.96 mg/dL | Plasma Triglycerides ([3]; Table 11, 30 nmol/kg): 27.9 ± 6.01 mg/dL | Blood Glucose ([3]; Table 11, 30 nmol/kg): 146.8 ± 8.43 mg/dL | Plasma Cholesterol ([3]; Table 11, 100 nmol/kg): 218.4 ± 18.70 mg/dL | Plasma Triglycerides ([3]; Table 11, 100 nmol/kg): 36.46 ± 5.34 mg/dL | Blood Glucose ([3]; Table 11, 100 nmol/kg): 134.3 ± 9.22 mg/dL | Liver Triglycerides ([3]; Table 12, 30 nmol/kg): 67.63 ± 23.40 mg/g tissue | Plasma Cholesterol ([3]; Table 12, 30 nmol/kg): 161.0 ± 13.92 mg/dL | Blood Glucose ([3]; Table 12, 30 nmol/kg): 136.3 ± 3.81 mg/dL | increase in metabolic rate compared to the control group [4]: no effect on metabolic rate | Percent Gastric Emptying [5]: 30.56 +/− 7.53** % | Corticosterone, Mean ([6]; 10 nmol/kg s.c., 16 hours): 274.57 ng/mL | increase in plasma corticosterone levels over control ([6]; Example 1 at 3, 10, 30 nmol/kg, semaglutide 10 nmol/kg): approximately 4 ×
